From ChEMBL document CHEMBL1201862, “PubChem BioAssay data set” (2004)
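Assay format: 96-well plates, 48-hour exposure. GI50 = concentration required for 50% inhibition of growth.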 Active and inactive are the calls of the source. Cut-off read from the data, not from the text of the source: active = GI50 up to about 1.1 µM and inactive = higher.

Legend:
Assay in all cases: DTP human tumour cell line panel, 48 h
[1] = test system: IGROV-1
[2] = test system: M14
[3] = test system: DU-145
[4] = test system: COLO 205
[5] = test system: HOP-62
[6] = test system: SN12C
[7] = test system: U-251
[8] = test system: A498
[9] = test system: SF-539
[10] = test system: SK-MEL-28
[11] = test system: UACC-62
[12] = test system: Hs-578T
[13] = test system: RPMI-8226
[14] = test system: T47D
[15] = test system: SF-268
[16] = test system: K562
[17] = test system: SK-MEL-2
[18] = test system: UACC-257
[19] = test system: MCF7
[20] = test system: SK-MEL-5

Measured: GI50

Fc1ccc(C(OCCN2CC3CCC(C2)N3CCCc2ccccc2)c2ccc(F)cc2)cc1
inactive: [1] 8.71 µM | [2] 2.48 µM | [3] 8.13 µM | [4] 1.41 µM | [5] 6.03 µM | [6] 3.81 µM | [7] 4.54 µM | [8] 4.27 µM | [9] 1.99 µM | [10] 8.99 µM | [11] 9.51 µM | [12] 3.25 µM | [13] 2.15 µM | [14] 1.95 µM | [15] 4.5 µM | [16] 2 µM | [17] 2.55 µM | [18] 3.33 µM | [19] 3.39 µM | [20] 1.82 µM

O=C(O)Cc1ccc([N+](=O)[O-])cc1[N+](=O)[O-]
inactive: [1] > 100 µM | [2] > 100 µM | [3] > 100 µM | [4] > 100 µM | [5] > 100 µM | [6] > 100 µM | [7] > 100 µM | [8] > 100 µM | [9] > 100 µM | [10] > 100 µM | [11] > 100 µM | [12] 70.6 µM | [13] > 100 µM | [14] > 100 µM | [15] > 100 µM | [16] > 100 µM | [17] > 100 µM | [18] > 100 µM | [19] > 100 µM | [20] > 100 µM

COc1cccc(CCNC(=O)Cc2ccccc2CCO)c1
inactive: [1] > 100 µM | [2] > 100 µM | [3] > 100 µM | [4] > 100 µM | [5] > 100 µM | [6] > 100 µM | [7] > 100 µM | [8] > 100 µM | [9] > 100 µM | [10] > 100 µM | [11] > 100 µM | [12] > 100 µM | [13] > 10 µM | [14] > 100 µM | [15] > 100 µM | [16] > 100 µM | [17] > 100 µM | [18] > 100 µM | [19] > 100 µM | [20] > 100 µM

S=C1NCCN1C(=S)NC1CCCCC1
inactive: [1] 68.1 µM | [2] 22.1 µM | [3] 49.8 µM | [4] 27 µM | [5] 37.6 µM | [6] 38.2 µM | [7] 37 µM | [8] 18.8 µM | [9] 21 µM | [10] 29 µM | [11] 43.7 µM | [12] 21.2 µM | [13] 30 µM | [14] 27.7 µM | [15] 34.7 µM | [16] 36.8 µM | [17] 34.8 µM | [18] 26.2 µM | [19] 43.1 µM | [20] 22.2 µM

CCCCCCC(=O)OC[n+]1cccc(-c2c(COC(=O)NC(C)C)c(COC(=O)NC(C)C)c3n2CCC3)c1
inactive: [1] > 41.8 µM | [2] 39.2 µM | [3] 35.9 µM | [4] 51.4 µM | [5] 42.5 µM | [6] 31 µM | [7] 29.4 µM | [8] 23 µM | [9] 32.1 µM | [10] > 100 µM | [11] 20 µM | [12] > 57.4 µM | [13] 32.1 µM | [14] 61.8 µM | [15] 20.4 µM | [16] 31.6 µM | [17] 26.7 µM | [18] 64.1 µM | [19] 27.6 µM | [20] 32.4 µM

CN(C)C1C(CO)OC(n2cnc3c(N)ncnc32)C1O (stereo not given)
inactive: [1] > 100 µM | [2] > 100 µM | [3] > 100 µM | [4] > 100 µM | [5] > 100 µM | [6] > 100 µM | [7] > 100 µM | [8] > 100 µM | [9] > 100 µM | [10] > 100 µM | [11] > 100 µM | [12] > 100 µM | [13] > 100 µM | [14] > 100 µM | [15] > 100 µM | [16] > 100 µM | [17] > 100 µM | [18] > 100 µM | [19] > 100 µM | [20] > 100 µM
